# Test results as given in patent US20250188080A1, “IMIDAZOLONYLQUINOLINE COMPOUNDS AND THERAPEUTIC USES THEREOF” (Merck Patent GmbH, priority 2019, published 2025).
# Entries after “also recorded” stand apart in the source; their conditions may differ.
# How the values were obtained:
# [1] = test system: HBCx-10 patient-derived triple-negative breast cancer xenograft; assay: HBCx-10 patient-derived xenograft, combination with olaparib; assay type: in vivo, immunodeficient female mice; settings: 100 mg/kg p.o. (3 d on/4 d off)×7 with olaparib 50 mg/kg p.o. qd×49
# Experimental: Seventy (70) mice with a subcutaneously growing HBCx-10 tumor (P20.1.4/0) between 62.5 and 196.0 mm^3 were allocated to treatment when their mean and median tumor volume reached 131.16 and 126.00 mm^3 respectively.
# Tumors were measured biweekly during the treatment period and once a week during the follow-up period.
# [2] = molecular target: T1, Kv11.1 hERG cardiac ion channel (Homo sapiens, UniProt Q12809); assay: Kv11.1 (hERG) ion channel activity (patch clamp assay); assay type: cell-based; settings: HEK293 transfected with hERG
# T1 construct: expressed in transfected cells; host or cells: HEK293 (human embryonic kidney cells), stably transfected
# T1 sequence (Q12809 whole entry): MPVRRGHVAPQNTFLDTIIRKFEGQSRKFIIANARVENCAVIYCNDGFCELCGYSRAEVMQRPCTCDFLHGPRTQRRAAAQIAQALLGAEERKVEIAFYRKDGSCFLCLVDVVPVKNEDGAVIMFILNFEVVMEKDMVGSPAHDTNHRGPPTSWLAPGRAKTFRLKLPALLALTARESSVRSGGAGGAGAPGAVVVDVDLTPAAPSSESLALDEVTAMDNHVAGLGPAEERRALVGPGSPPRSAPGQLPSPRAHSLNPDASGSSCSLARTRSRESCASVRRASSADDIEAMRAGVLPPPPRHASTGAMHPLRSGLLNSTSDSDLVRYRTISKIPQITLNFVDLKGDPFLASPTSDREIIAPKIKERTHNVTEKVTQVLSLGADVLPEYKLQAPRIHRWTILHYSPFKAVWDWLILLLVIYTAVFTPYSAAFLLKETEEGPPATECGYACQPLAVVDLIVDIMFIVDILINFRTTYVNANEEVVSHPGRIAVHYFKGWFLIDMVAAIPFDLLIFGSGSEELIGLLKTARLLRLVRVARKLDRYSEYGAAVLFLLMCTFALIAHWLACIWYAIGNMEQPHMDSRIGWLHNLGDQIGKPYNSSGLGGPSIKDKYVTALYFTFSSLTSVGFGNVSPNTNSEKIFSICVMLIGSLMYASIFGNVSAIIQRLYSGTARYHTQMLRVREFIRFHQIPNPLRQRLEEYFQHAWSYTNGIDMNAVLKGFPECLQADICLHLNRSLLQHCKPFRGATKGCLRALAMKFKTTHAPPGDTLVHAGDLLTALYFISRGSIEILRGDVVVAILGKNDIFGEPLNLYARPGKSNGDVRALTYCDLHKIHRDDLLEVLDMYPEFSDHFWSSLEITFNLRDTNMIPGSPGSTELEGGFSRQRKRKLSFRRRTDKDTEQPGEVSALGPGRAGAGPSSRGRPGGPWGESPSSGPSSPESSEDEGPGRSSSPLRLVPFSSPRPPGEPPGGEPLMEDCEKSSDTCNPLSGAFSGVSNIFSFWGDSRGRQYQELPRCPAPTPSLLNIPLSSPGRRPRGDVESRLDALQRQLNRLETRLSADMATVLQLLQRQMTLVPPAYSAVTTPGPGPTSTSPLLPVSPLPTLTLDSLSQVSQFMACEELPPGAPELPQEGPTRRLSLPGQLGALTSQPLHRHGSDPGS
# Experimental: Method for the detection and characterisation of test substances which interfere with the Kv11.1 (hERG) channel: Kv11.1 (hERG, human ether a-go-go related gene) is a potassium channel which plays a central role for repolarisation of the cells in the ventricular cardiomyocytes.
# The patch-clamp measurement was carried out at room temperature in whole-cell configuration on human embryonic kidney cells (HEK293) which have been transfected in a stable manner with the hERG gene.
# The whole-cell configurations were carried out using an automated patch clamp device (Patchliner™, Nanion Technologies, Munich). […]
# The cells were clamped to a holding potential of −80 mV. […] DMSO (vehicle control, 0.1% of DMSO) was then applied, and the control current was recorded for 3 min. The test substance was subsequently added twice in the same concentration, and the potassium current was measured for 3.5 min in each case.
# If the measurement result of a test substance at an initial concentration of 10 μM was smaller than (−)50% effect (threshold value) (for example (−)60% effect), the test substance was, in order to determine a dose/action relationship, added cumulatively in increasing concentration, where each concentration was measured for 5 min.
# The reference substance used was the Kv11.1 (hERG) ion channel blocker quinidine. […] For the calculation, the current was evaluated for the respective final trace. […]
# [3] = test system: xenografts of the human squamous cell head and neck model FaDu; assay: FaDu SCCHN tumor model, combination with irradiation; assay type: in vivo, NMRI nu/nu mice; settings: oral 10 or 25 mg/kg 30 min before each IR fraction; 6×5 days, 2 Gy
# Experimental: One of the control groups was treated with vehicle only. The other control group was treated with IR only at 30 fractions IR of 2 Gy in a 5 days on/2 days off schedule and over a period of 6 weeks.
compound,measurement,setting,value
"COc1cc2ncc3c(c2cc1-c1cn(C)nc1C)n(-c1c(F)cncc1OC)c(=O)n3C (single isomer, unassigned) [Compound 1, 8-(1,3-Dimethyl-1H-pyrazol-4-yl)-1-(Sa)-(3-fluoro-5-methoxy-pyridin-4-yl)-7-methoxy-3-methyl-1,3-dihydro-imidazo[4,5-c]quinolin-2-one]",Anti-tumor efficacy in combination with olaparib,[1],efficacy of Compound 1 in combination with olaparib was demonstrated
same,Ki,[2],> 30 µM
same,Anti-tumor efficacy in combination with irradiation,[3],significant dose-dependent anti-tumor responses; also recorded: strongly enhanced the efficacy of IR (irradiation) in a dose-dependent manner; also recorded: strong tumor growth inhibition
